Assay results from PubChem BioAssay (NCI).
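These data come from cells grown in 96-well plates and exposed to compound for 48 hours at five concentrations. The concentration for full growth arrest is given as TGI.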

Legend:
Assay in all cases: DTP human tumour cell line panel, 48 h
XF 498 CNS = tested on: XF 498 CNS
RXF-631 renal = tested on: RXF-631 renal
HOP-18 NSCLC = tested on: HOP-18 NSCLC

## COc1ccc(C[C@H](N)C(=O)NC2C(CO)OC(n3cnc4c(N(C)C)ncnc43)C2O)cc1 (stereo partly drawn)
XF 498 CNS
  TGI: 0.166 µM

## CC(C)(C)N1C(C(=O)c2ccccc2)C1c1ccccc1 (stereo not drawn)
RXF-631 renal
  TGI: > 100 µM

## N#CN=C(N)NC(=O)/C=C/C=C/c1ccc(Cl)cc1
HOP-18 NSCLC
  TGI: > 100 µM
